Where “and” joins values, the source holds several entries; their conditions need not be identical. Equal entries are not always repeated. Where two headings read alike, the source gives them in different places.
Assays:
[1] = system: lung cancer cell line A549; experiment: tumor growth inhibition, A549; assay type: cell-based, Human; details: Homo sapiens, A549, A549, BrdU, T=72
Excerpt: (§1) Growth Inhibition. […] T1 values≤T0 values were designated as T, cytotoxicity.

[2] = system: SKOV-3 (Ovarian); experiment: growth inhibition (BrdU), SKOV-3; assay type: cell-based, Human; details: Homo sapiens, SK-OV-3, SKOV-3, BrdU, T=72
Excerpt: as §1

[3] = system: MDA231 (Breast); experiment: growth inhibition (BrdU), MDA231; assay type: cell-based, Human; details: Homo sapiens, MDA-MB-231, MDA-MB-321, BrdU, T=72
Excerpt: as §1

[4] = system: K562 (CML); experiment: growth inhibition (BrdU), K562; assay type: cell-based, Human; details: Homo sapiens, K562, K562, BrdU, T=72
Excerpt: as §1

[5] = target: Abl(h) (Homo sapiens, UniProt P00519); experiment: isolated kinase activity, Abl; assay type: biochemical; details: compound @ 10 μM
Excerpt: (§2) Table 8 illustrates percent activity of isolated kinases in the presence of the AstraZeneca ATP-competitive inhibitor (KX2-328, AZ-28) or KX2-391 relative to control (untreated) isolated kinases.

[6] = target: Lyn(h) (Homo sapiens, UniProt P07948); experiment: isolated kinase activity, Lyn; assay type: biochemical; details: compound @ 10 μM
Excerpt: as §2

[7] = target: PDGFRβ(h) (Homo sapiens, UniProt P09619); experiment: isolated kinase activity, PDGFRβ; assay type: biochemical; details: compound @ 10 μM
Excerpt: as §2

[8] = target: PKCα(h) (Homo sapiens, UniProt P17252); experiment: isolated kinase activity, PKCα; assay type: biochemical; details: compound @ 10 μM
Excerpt: as §2

[9] = target: isolated Src (Homo sapiens, UniProt P12931); experiment: titration against isolated Src; assay type: biochemical; details: titration data
[10] = plasma exposure after oral administration; assay type: in vivo, male CD-1 mice; details: for concentration at 0.5 h / concentration at 1 h / concentration at 2 h / concentration at 5 h / AUC(0-t) / Cmax / Tmax: male, CD-1, mouse; for concentration at 0.5 h / concentration at 1 h / concentration at 2 h / concentration at 5 h: plasma, po; for AUC(0-t) / Cmax / Tmax: Plasma
Protocol: Plasma concentrations were measured in mice after oral administration. All doses were formulated in purified water. Four groups of male CD-1 mice were dosed after an overnight fast and fed 4 hours post-dose. Dosing was as follows:
Protein was precipitated with 0.25 mL acetonitrile for plasma, 0.25 mL for brain. After centrifugation, supernatant was directly injected into an LC/MS system. The limit of quantitation was 1 ng/mL using a 50 μL aliquot for plasma and a 50 μL, aliquot for brain. The standard curve was 1 to 1,000 ng/mL for both plasma and brain. HPLC conditions were as follows:
HPLC System: Shimadzu SCL-10 System
• Analytical Column: Aquasil C18 5 μm 100×2 mm column. • Column Temperature: Ambient temperature • Autosampler Temperature: Ambient temperature • Mobile Phase A) 10 mM Ammonium formate in water (pH 4). • B) Acetonitrile. • Flow Rate: 0.6 mL/min • Injection Volume: 2 μL • Gradient:
• Mass Spectrometry Conditions were as follows: • Instrument: ABI Sciex API 4000 • Mode: ESI+ • Experiment: MRM (multiple reaction monitoring) • Transitions: KX2-391: m/z 432.4→114.2 (Rt=3.11 minute) • KX2-361: m/z 406.1→253.2 (Rt=3.33 minute)

[11] = system: GL261 glioma cells; experiment: intracranial GL261 glioma survival study; assay type: in vivo, C57BL/6 mice; details: 5 mg/kg bid oral; C57BL/6 mice, intracranial GL261
Protocol: A brain tumor mouse xenograft study was conducted comparing KX2-361 and KX2-391 (KXO1) to Temodar®. The studies were conducted in C57BL/6 mice. GL261 glioma cells (1×10^5 in 5 μl DMEM) were implanted intracranial coordinates: bregma, lateral 2.0 mm, anterior 1.2 mm, 3.0 mm depth dura. Treatment was initiated 3 days post implantation. The groups were as follows (all doses in 100 μl H2O):
The median survival range and the log-rank (Mantel-Cox) statistical test results comparing the survival distributions of the samples.

Chain of Abl(h) (P00519 whole entry): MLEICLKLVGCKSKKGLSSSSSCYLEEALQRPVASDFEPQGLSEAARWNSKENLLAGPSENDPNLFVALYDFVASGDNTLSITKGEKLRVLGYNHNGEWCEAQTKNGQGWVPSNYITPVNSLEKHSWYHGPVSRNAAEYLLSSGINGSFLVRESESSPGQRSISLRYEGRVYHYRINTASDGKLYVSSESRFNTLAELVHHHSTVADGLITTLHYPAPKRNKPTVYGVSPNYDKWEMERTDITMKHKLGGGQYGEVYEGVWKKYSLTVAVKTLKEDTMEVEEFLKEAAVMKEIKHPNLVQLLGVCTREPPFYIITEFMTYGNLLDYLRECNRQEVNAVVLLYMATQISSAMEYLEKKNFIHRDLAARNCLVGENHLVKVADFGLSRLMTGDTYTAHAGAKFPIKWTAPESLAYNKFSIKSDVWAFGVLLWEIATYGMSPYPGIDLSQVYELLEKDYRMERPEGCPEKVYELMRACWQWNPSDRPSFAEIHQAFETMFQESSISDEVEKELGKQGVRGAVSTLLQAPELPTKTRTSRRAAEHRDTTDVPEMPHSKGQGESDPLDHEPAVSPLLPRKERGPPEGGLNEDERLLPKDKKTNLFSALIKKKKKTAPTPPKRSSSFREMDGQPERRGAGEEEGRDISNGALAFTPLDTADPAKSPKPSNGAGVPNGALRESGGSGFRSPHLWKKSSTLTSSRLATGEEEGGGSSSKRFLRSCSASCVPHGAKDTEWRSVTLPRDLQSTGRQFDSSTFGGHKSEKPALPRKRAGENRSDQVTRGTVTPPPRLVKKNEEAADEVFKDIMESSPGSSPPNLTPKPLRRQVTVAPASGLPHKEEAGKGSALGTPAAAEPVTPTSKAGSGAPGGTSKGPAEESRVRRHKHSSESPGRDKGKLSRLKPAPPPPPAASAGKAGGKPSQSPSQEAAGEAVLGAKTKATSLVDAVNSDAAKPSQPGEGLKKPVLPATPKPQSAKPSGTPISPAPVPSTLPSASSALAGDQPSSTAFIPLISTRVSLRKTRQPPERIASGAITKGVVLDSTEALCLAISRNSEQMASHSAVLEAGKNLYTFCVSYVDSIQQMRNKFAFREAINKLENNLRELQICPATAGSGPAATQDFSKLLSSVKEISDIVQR
Chain of Lyn(h) (P07948 whole entry): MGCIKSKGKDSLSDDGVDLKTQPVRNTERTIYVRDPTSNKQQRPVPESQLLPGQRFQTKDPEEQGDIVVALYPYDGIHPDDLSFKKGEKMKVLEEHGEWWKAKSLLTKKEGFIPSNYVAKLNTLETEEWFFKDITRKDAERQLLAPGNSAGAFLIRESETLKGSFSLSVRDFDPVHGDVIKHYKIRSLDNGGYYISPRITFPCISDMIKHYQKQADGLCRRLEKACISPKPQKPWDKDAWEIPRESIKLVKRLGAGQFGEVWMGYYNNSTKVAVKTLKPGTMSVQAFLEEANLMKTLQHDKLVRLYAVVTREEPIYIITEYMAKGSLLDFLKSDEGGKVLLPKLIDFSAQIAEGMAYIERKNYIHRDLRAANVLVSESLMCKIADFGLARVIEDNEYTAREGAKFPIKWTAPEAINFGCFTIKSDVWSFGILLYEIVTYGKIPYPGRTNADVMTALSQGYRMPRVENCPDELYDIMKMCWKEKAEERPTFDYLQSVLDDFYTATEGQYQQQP
Chain of isolated Src (P12931 whole entry): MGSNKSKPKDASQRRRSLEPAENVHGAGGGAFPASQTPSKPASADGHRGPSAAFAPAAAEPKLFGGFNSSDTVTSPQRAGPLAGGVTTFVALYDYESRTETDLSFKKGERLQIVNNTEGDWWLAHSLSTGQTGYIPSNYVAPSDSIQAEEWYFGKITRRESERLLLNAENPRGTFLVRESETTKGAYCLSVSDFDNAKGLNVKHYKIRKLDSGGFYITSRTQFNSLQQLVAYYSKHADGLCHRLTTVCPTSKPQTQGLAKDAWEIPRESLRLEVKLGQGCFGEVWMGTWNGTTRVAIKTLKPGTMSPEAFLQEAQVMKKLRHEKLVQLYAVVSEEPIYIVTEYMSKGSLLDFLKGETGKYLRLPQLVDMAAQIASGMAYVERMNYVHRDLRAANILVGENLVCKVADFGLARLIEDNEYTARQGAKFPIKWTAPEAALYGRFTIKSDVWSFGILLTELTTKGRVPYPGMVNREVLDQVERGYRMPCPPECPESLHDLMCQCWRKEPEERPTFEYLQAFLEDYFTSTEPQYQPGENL
Chain of PDGFRβ(h) (P09619 33-1106): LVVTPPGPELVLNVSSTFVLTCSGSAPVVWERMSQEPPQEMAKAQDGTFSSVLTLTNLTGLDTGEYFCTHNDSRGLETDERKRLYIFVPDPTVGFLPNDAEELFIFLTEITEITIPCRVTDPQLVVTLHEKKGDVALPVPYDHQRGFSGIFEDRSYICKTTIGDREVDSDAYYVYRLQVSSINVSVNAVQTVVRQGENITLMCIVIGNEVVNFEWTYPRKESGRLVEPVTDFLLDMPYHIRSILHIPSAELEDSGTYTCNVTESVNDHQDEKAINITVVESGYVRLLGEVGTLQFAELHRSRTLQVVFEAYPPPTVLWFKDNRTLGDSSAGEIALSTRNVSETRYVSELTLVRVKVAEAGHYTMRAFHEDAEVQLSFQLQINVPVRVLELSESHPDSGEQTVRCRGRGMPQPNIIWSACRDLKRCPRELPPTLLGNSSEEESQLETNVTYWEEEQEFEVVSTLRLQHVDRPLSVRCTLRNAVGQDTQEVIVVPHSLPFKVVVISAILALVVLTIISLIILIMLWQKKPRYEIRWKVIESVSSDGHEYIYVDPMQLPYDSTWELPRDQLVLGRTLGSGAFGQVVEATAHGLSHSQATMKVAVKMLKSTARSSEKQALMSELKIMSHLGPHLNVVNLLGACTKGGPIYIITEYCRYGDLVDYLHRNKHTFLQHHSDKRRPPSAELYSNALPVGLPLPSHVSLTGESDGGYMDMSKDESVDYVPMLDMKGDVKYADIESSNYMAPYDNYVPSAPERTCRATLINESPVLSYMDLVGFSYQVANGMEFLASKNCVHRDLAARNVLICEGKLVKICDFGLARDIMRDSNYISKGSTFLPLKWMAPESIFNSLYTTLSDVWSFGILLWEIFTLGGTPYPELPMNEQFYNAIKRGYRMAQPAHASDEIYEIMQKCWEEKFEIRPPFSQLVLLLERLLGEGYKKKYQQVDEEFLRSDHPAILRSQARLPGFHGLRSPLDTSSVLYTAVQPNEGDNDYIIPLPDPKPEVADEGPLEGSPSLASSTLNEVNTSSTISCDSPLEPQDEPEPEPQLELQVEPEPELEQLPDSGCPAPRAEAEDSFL

Work on `O=C(Cc1ccc(-c2ccc(OCCN3CCOCC3)cc2)cn1)NCc1ccccc1` [KX2-391] yielded a GI50 [1] of 9.39 nM, a GI50 [2] of 9.75 nM and a GI50 [3] of 19.8 nM. For the same compound, the GI50 [4] was 10.9 nM, the “percent activity of isolated kinase relative to control” value [5] was 120% and the “percent activity of isolated kinase relative to control” value [6] was 113%. The “percent activity of isolated kinase relative to control” value [7] was 110%, the “percent activity of isolated kinase relative to control” value [8] was 111% and the IC50 [9] was 46000 nM. It also gave a concentration at 0.5 h ([10]; 10 mg/kg, single PO dose 10 mg/kg (Group 1), 0.5 hr, read-out: Plasma Concentrations, Group A, B, C) of 779 ng/mL, a concentration at 0.5 h ([10]; 10 mg/kg, single PO dose 10 mg/kg (Group 1), 0.5 hr, read-out: Plasma Concentrations, Mean) of 871 ng/mL and a concentration at 1 h ([10]; 10 mg/kg, single PO dose 10 mg/kg (Group 1), 1 hr, read-out: Plasma Concentrations, Mean) of 363 ng/mL. The concentration at 2 h ([10]; 10 mg/kg, single PO dose 10 mg/kg (Group 1), 2 hr, read-out: Plasma Concentrations, Group A, B, C) was 328 ng/mL, the concentration at 2 h ([10]; 10 mg/kg, single PO dose 10 mg/kg (Group 1), 2 hr, read-out: Plasma Concentrations, Mean) was 287 ng/mL and the concentration at 5 h ([10]; 10 mg/kg, single PO dose 10 mg/kg (Group 1), 5 hr, read-out: Plasma Concentrations, Group A, B, C) was 133 ng/mL. It also gave a concentration at 5 h ([10]; 10 mg/kg, single PO dose 10 mg/kg (Group 1), 5 hr, read-out: Plasma Concentrations, Mean) of 147 ng/mL, a concentration at 0.5 h ([10]; 50 mg/kg, single PO dose 50 mg/kg (Group 2), 0.5 hr, read-out: Plasma Concentrations, Group A, B, C) of 8510 ng/mL and a concentration at 0.5 h ([10]; 50 mg/kg, single PO dose 50 mg/kg (Group 2), 0.5 hr, read-out: Plasma Concentrations, Mean) of 9720 ng/mL. For the same compound, the concentration at 1 h ([10]; 50 mg/kg, single PO dose 50 mg/kg (Group 2), 1 hr, read-out: Plasma Concentrations, Group A, B, C) was 2370 ng/mL, the concentration at 1 h ([10]; 50 mg/kg, single PO dose 50 mg/kg (Group 2), 1 hr, read-out: Plasma Concentrations, Mean) was 2060 ng/mL and the concentration at 2 h ([10]; 50 mg/kg, single PO dose 50 mg/kg (Group 2), 2 hr, read-out: Plasma Concentrations, Group A, B, C) was 1150 ng/mL. It also gave a concentration at 2 h ([10]; 50 mg/kg, single PO dose 50 mg/kg (Group 2), 2 hr, read-out: Plasma Concentrations, Mean) of 1510 ng/mL, a concentration at 5 h ([10]; 50 mg/kg, single PO dose 50 mg/kg (Group 2), 5 hr, read-out: Plasma Concentrations, Mean) of 922 ng/mL and an AUC(0-t) ([10]; single oral dose 10 mg/kg) of 1500 ng·h/mL. For the same compound, the Cmax ([10]; single oral dose 10 mg/kg) was 871 ng/mL, the Tmax ([10]; single oral dose 10 mg/kg) was 30 min and the AUC(0-t) ([10]; single oral dose 50 mg/kg) was 10800 ng·h/mL. The Cmax ([10]; single oral dose 50 mg/kg) was 9720 ng/mL, the Tmax ([10]; single oral dose 50 mg/kg) was 30 min and the “Plasma Concentrations, Group A, B, C” value ([10]; single PO dose 10 mg/kg (Group 1), 0.5 hr, 10 mg/kg) was 1096.62 ng/mL and 737.37 ng/mL. For the same compound, the “Plasma Concentrations, Group A, B, C” value ([10]; single PO dose 10 mg/kg (Group 1), 2 hr, 10 mg/kg) was 271.89 ng/mL and 261.57 ng/mL, the “Plasma Concentrations, Group A, B, C” value ([10]; single PO dose 10 mg/kg (Group 1), 5 hr, 10 mg/kg) was 147.74 ng/mL and 160.62 ng/mL and the “Plasma Concentrations, Group A, B, C” value ([10]; single PO dose 50 mg/kg (Group 2), 0.5 hr, 50 mg/kg) was 8334.53 ng/mL and 12315.31 ng/mL. For the same compound, the “Plasma Concentrations, Group A, B, C” value ([10]; single PO dose 50 mg/kg (Group 2), 1 hr, 50 mg/kg) was 2442.20 ng/mL and 1365.56 ng/mL, the “Plasma Concentrations, Group A, B, C” value ([10]; single PO dose 50 mg/kg (Group 2), 2 hr, 50 mg/kg) was 1546.09 ng/mL and 1850.18 ng/mL and the Median survival [11] was 23. For the same compound, the “survival Range” value [11] was 22-29.

Reference: patent US10196357B2, “Biaryl compositions and methods for modulating a kinase cascade” (Athenex, Inc., priority 2007, dated 2019)
